Reference: the supplement of paper PMC12533247

Columns and labels:
[1] = system: HSV-1 K26-GFP infected 3D skin equivalent; assay: % activity on HSV-1 GFP signal (0 = infected DMSO control, -100 = uninfected control); higher = higher signal (negative = inhibition / toxicity); conditions: time (h post infection): 48
Method: (§1)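 Triplicate dose-response (0.04 to 10 uM) of 11 top compounds in 3D bioprinted skin equivalents (submerged and ALI models) infected with GFP-HSV-1 K26 at MOI 0.1 and fixed at 48 hpi. GFP (virus) and tdTomato (fibroblast viability) signals are normalised to per-plate controls.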

[2] = system: HSV-1 K26-GFP infected primary human skin cells; assay: % change of HSV-1 GFP signal vs untreated infected cells; higher = less antiviral inhibition
Method: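 2D primary donor-derived keratinocytes (read at 20 hpi) and donor-matched dermal fibroblasts (read at 48 hpi) infected with GFP-HSV-1 K26 at MOI 1 and treated 1 h later with compound dilutions. IncuCyte GFP integrated intensity is normalised by subtracting mock-infected wells and dividing by untreated infected wells, shown as % change (-100 = full inhibition).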

[3] = system: HSV-1 K26-GFP infected 3D skin equivalent; assay: % change of tdTomato fibroblast signal relative to infected DMSO control; higher = higher signal (negative = inhibition / toxicity); conditions: time (h post infection): 48
Method: as §1

[4] = system: HSV-1 K26-GFP infected primary human skin cells; assay: % change of HSV-1 GFP signal vs untreated infected cells; higher = less antiviral inhibition; conditions: cell type: primary dermal fibroblasts, time (h post infection): 48
Method: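 2D primary donor-derived dermal fibroblasts infected with GFP-HSV-1 K26 at MOI 1, treated 1 h later with compound dilutions and read at 48 hpi on IncuCyte. GFP integrated intensity is normalised to mock-infected and untreated infected wells (% change; -100 = full inhibition).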

Nc1ccn([C@@H]2O[C@H](CO)[C@@H](O)C2(F)F)c(=O)n1 [Gemcitabine]
Conditions | % activity on HSV-1 GFP signal [%] | % change of HSV-1 GFP signal [%] | % change of tdTomato fibroblast signal [%]
[1], 0.041152 µM, model: ALI | -11.7 | – | –
[1], 0.041152 µM, model: submerged | -9.74 | – | –
[1], 0.123457 µM, model: ALI | -37.9 | – | –
[1], 0.123457 µM, model: submerged | -26.5 | – | –
[1], 0.37037 µM, model: ALI | -102 | – | –
[1], 0.37037 µM, model: submerged | -92.4 | – | –
[1], 1.111111 µM, model: ALI | -106 | – | –
[1], 1.111111 µM, model: submerged | -97 | – | –
[1], 3.33333 µM, model: ALI | -99.4 | – | –
[1], 3.33333 µM, model: submerged | -99 | – | –
[1], 10 µM, model: ALI | -102 | – | –
[1], 10 µM, model: submerged | -99.8 | – | –
[3], 0.041152 µM, model: ALI | – | – | -3.97
[3], 0.041152 µM, model: submerged | – | – | -1.22
[3], 0.123457 µM, model: ALI | – | – | -3.65
[3], 0.123457 µM, model: submerged | – | – | -6.59
[3], 0.37037 µM, model: ALI | – | – | -3.96
[3], 0.37037 µM, model: submerged | – | – | -13.9
[3], 1.111111 µM, model: ALI | – | – | -5.76
[3], 1.111111 µM, model: submerged | – | – | -17.6
[3], 3.33333 µM, model: ALI | – | – | -10.9
[3], 3.33333 µM, model: submerged | – | – | -22.7
[3], 10 µM, model: ALI | – | – | -5.25
[3], 10 µM, model: submerged | – | – | -28.4
[4], 0.001 µM, donor: 3 | – | 2.63 | –
[4], 0.003 µM, donor: 3 | – | 2.52 | –
[4], 0.003 µM, donor: 4 | – | -2.11 | –
[4], 0.0091 µM, donor: 3 | – | 1.9 | –
[4], 0.0091 µM, donor: 4 | – | -1.82 | –
[4], 0.0274 µM, donor: 3 | – | -32.1 | –
[4], 0.0274 µM, donor: 4 | – | -16.7 | –
[4], 0.0823 µM, donor: 3 | – | -96.7 | –
[4], 0.0823 µM, donor: 4 | – | -78 | –
[4], 0.2469 µM, donor: 3 | – | -99.824 | –
[4], 0.2469 µM, donor: 4 | – | -96.4 | –
[4], 0.7407 µM, donor: 3 | – | -99.797 | –
[4], 0.7407 µM, donor: 4 | – | -99.75 | –
[4], 2.2222 µM, donor: 3 | – | -99.74 | –
[4], 2.2222 µM, donor: 4 | – | -99.81 | –
[4], 6.6667 µM, donor: 3 | – | -99.76 | –
[4], 6.6667 µM, donor: 4 | – | -99.83 | –
[4], 20 µM, donor: 3 | – | -99.73 | –
[4], 20 µM, donor: 4 | – | -99.907 | –

% change of HSV-1 GFP signal [%], [2]
Conditions | 0.001 µM | 0.003 µM | 0.0091 µM | 0.0274 µM | 0.0823 µM | 0.2469 µM | 0.7407 µM | 2.2222 µM | 6.6667 µM | 20 µM
cell type: primary dermal fibroblasts, donor: 5, time (h post infection): 48 | -5.06 | -5.8 | -2.35 | -8.4 | -70.4 | -97.2 | -99.78 | -99.91 | -99.93 | -99.87
cell type: primary keratinocytes, donor: 3, time (h post infection): 20 | 29.8 | 37.4 | 36.1 | 17.1 | -25.6 | -75.6 | -97.4 | -98.37 | -99 | -99.06
cell type: primary keratinocytes, donor: 4, time (h post infection): 20 | 9.34 | 0.292 | 4.89 | -17.4 | -50.7 | -86.4 | -97.6 | -99.732 | -99.606 | -99.72
cell type: primary keratinocytes, donor: 5, time (h post infection): 20 | 6.72 | 7.7 | 7.12 | 9.71 | -23 | -73.3 | -94.7 | -99 | -99.39 | -99.6

CC(C)c1cnn2c(NCc3ccccc3-n3cccn3)nc(OC3CCCNC3)nc12 (centres undefined) [LDC4297]
Conditions | % activity on HSV-1 GFP signal [%] | % change of HSV-1 GFP signal [%] | % change of tdTomato fibroblast signal [%]
[1], 0.041152 µM, model: ALI | -23.3 | – | –
[1], 0.041152 µM, model: submerged | -10.7 | – | –
[1], 0.123457 µM, model: ALI | -67.2 | – | –
[1], 0.123457 µM, model: submerged | -16.1 | – | –
[1], 0.37037 µM, model: ALI | -88.4 | – | –
[1], 0.37037 µM, model: submerged | -44.7 | – | –
[1], 1.111111 µM, model: ALI | -99.9 | – | –
[1], 1.111111 µM, model: submerged | -54.4 | – | –
[1], 3.33333 µM, model: ALI | -105 | – | –
[1], 3.33333 µM, model: submerged | -74.5 | – | –
[1], 10 µM, model: ALI | -99.9 | – | –
[1], 10 µM, model: submerged | -94.8 | – | –
[3], 0.041152 µM, model: ALI | – | – | -1.16
[3], 0.041152 µM, model: submerged | – | – | 7.31
[3], 0.123457 µM, model: ALI | – | – | -6.21
[3], 0.123457 µM, model: submerged | – | – | -0.0281
[3], 0.37037 µM, model: ALI | – | – | -7.32
[3], 0.37037 µM, model: submerged | – | – | -5.4
[3], 1.111111 µM, model: ALI | – | – | -9.38
[3], 1.111111 µM, model: submerged | – | – | 8.7
[3], 3.33333 µM, model: ALI | – | – | -3.18
[3], 3.33333 µM, model: submerged | – | – | 7.79
[3], 10 µM, model: ALI | – | – | 1.92
[3], 10 µM, model: submerged | – | – | -14.8
[4], 0.003 µM, donor: 3 | – | 20.9 | –
[4], 0.0091 µM, donor: 3 | – | 21.8 | –
[4], 0.0091 µM, donor: 4 | – | 2.39 | –
[4], 0.0274 µM, donor: 3 | – | 21.6 | –
[4], 0.0274 µM, donor: 4 | – | 1.27 | –
[4], 0.0823 µM, donor: 3 | – | 14.2 | –
[4], 0.0823 µM, donor: 4 | – | -5.21 | –
[4], 0.2469 µM, donor: 3 | – | -5.39 | –
[4], 0.2469 µM, donor: 4 | – | -24 | –
[4], 0.7407 µM, donor: 3 | – | -27.1 | –
[4], 0.7407 µM, donor: 4 | – | -34.7 | –
[4], 2.2222 µM, donor: 3 | – | -57.2 | –
[4], 2.2222 µM, donor: 4 | – | -53.3 | –
[4], 6.6667 µM, donor: 3 | – | -98.3 | –
[4], 6.6667 µM, donor: 4 | – | -92.4 | –
[4], 20 µM, donor: 3 | – | -100.3 | –
[4], 20 µM, donor: 4 | – | -99.916 | –
[4], 60 µM, donor: 3 | – | -100.3 | –
[4], 60 µM, donor: 4 | – | -99.83 | –

% change of HSV-1 GFP signal [%], [2]
Conditions | 0.003 µM | 0.0091 µM | 0.0274 µM | 0.0823 µM | 0.2469 µM | 0.7407 µM | 2.2222 µM | 6.6667 µM | 20 µM | 60 µM
cell type: primary dermal fibroblasts, donor: 5, time (h post infection): 48 | -4.88 | -5.58 | -6.29 | -17.5 | -44.9 | -60.2 | -78.8 | -97.65 | -99.964 | -99.913
cell type: primary keratinocytes, donor: 3, time (h post infection): 20 | -0.466 | 9.74 | -1.73 | 2.24 | -13.6 | -24.8 | -42.6 | -99.02 | -99.87 | -99.984
cell type: primary keratinocytes, donor: 4, time (h post infection): 20 | -19.1 | -22.2 | -23.4 | -17.1 | -35.8 | -61 | -75.3 | -99.7 | -99.973 | -100.04
cell type: primary keratinocytes, donor: 5, time (h post infection): 20 | – | 7.64 | 1.09 | 0.186 | -10 | -17.4 | -37.8 | -99.64 | -99.946 | -99.969

CC(=O)O[C@H]1C[C@H](O[C@H]2[C@@H](O)C[C@H](O[C@H]3[C@@H](O)C[C@H](O[C@H]4CC[C@@]5(C)[C@H](CC[C@@H]6[C@@H]5C[C@@H](O)[C@]5(C)[C@@H](C7=CC(=O)OC7)CC[C@]65O)C4)O[C@@H]3C)O[C@@H]2C)O[C@H](C)[C@H]1O[C@@H]1O[C@H](CO)[C@@H](O)[C@H](O)[C@H]1O [Lanatoside C]
Conditions | % activity on HSV-1 GFP signal, [1] [%] | % change of tdTomato fibroblast signal, [3] [%]
0.041152 µM, model: ALI | -34.1 | 2.37
0.041152 µM, model: submerged | -5.47 | -1.16
0.123457 µM, model: ALI | -95.2 | 5.13
0.123457 µM, model: submerged | -72.7 | -17.7
0.37037 µM, model: ALI | -105 | -2.13
0.37037 µM, model: submerged | -99.6 | -23.6
1.111111 µM, model: ALI | -104 | 0.581
1.111111 µM, model: submerged | -103 | -37.1
3.33333 µM, model: ALI | -104 | -5.14
3.33333 µM, model: submerged | -104 | -52.9
10 µM, model: ALI | -99.5 | -4.98
10 µM, model: submerged | -107 | -56.04

% change of HSV-1 GFP signal [%], [2]
Conditions | 0.001 µM | 0.003 µM | 0.0091 µM | 0.0274 µM | 0.0823 µM | 0.2469 µM | 0.7407 µM | 2.2222 µM | 6.6667 µM | 20 µM
cell type: primary dermal fibroblasts, donor: 5, time (h post infection): 48 | -2.98 | -9.39 | -4.44 | -5.88 | -21.6 | -99.19 | -99.81 | -99.972 | -99.993 | -99.985
cell type: primary keratinocytes, donor: 3, time (h post infection): 20 | 4.49 | 6.12 | -2.17 | 7.86 | -16.9 | -96 | -99.91 | -99.948 | -99.8 | -99.941
cell type: primary keratinocytes, donor: 4, time (h post infection): 20 | -0.192 | -0.172 | -18.5 | -9.65 | -38.4 | -79.3 | -100.1 | -100.1 | -100.1 | -100.07
cell type: primary keratinocytes, donor: 5, time (h post infection): 20 | 12.3 | 12.4 | 10 | -3.35 | -66 | -99.66 | -99.948 | -99.893 | -99.85 | -99.904
